Earlier results as cited in patent US7713569B2, “Hydroxytyrosol-rich composition from olive vegetation water and method of use thereof” (Creagri, Inc., priority 2000, dated 2010).

What was measured:
[1] = humans; Visioli et al., 2000
[2] = system: peroxynitrite dependent DNA base modification and tyrosine nitration; details: Deiana et al., 1999
5-lipoxygenase = details: de la Puerta et al., 1999; Kohyama et al., 1997
12-lipoxygenase = details: de la Puerta et al., 1999; Kohyama et al., 1997
[3] = system: low density lipoprotein (LDL) oxidation; details: Visioli and Galli, 1998
platelet aggregation = details: Petroni et al., 1995
[4] = system: various human cellular systems; details: Manna et al., 2000

**Q.** Which results are given for `OCCc1ccc(O)c(O)c1` [hydroxytyrosol, 3,4-dihydroxyphenethyl alcohol]?
**A.** absorption following ingestion [1]: dose-dependently absorbed; effect on peroxynitrite dependent DNA base modification and tyrosine nitration [2]: inhibitory effect; inhibition of 5-lipoxygenase (5-lipoxygenase): inhibits; inhibition of 12-lipoxygenase (12-lipoxygenase): inhibits; LDL oxidation [3]: prevents; platelet aggregation (platelet aggregation): prevents; cytotoxicity induced by reactive oxygen species [4]: counteracts
